The results in this text go back to US8299049B2, “Compositions comprising an extract of Tiarella polyphylla or compounds isolated therefrom for preventing and treating cancer diseases” (Korea Institute of Bioscience and Biotechnology, priority 2007, dated 2012).

Test [1] relates to SNU449Tp cells expressing TM4SF5. The test is described as follows: Number of floating cells, SNU449Tp. The following applies: TA versus DMSO. Format: cell-based. From the text: (§1) FIG. 17 is a graph showing the number of floating SNU449Cp and SNU449Tp cells, after tiarellic acid (TA) treatment for various time periods;
The test system of a further test is TM4SF5-expressing cells. The test is described as follows: Immunofluorescence of focal adhesions and actin, TM4SF5-expressing cells. Format: cell-based. The method, then:
(§2) Cells were treated with DMSO or 20 μM TA for 24 hrs. Then, the cells were plated on 10 μg/ml fibronectin-precoated coverslips and incubated for 2 hrs in the presence of DMSO or 20 μM TA. Subsequently, immunofluorescence staining was performed using pY^397 FAK, pY^118 paxillin, and actin, as described in the literature (Lee, S. Y. et al., Focal adhesion and actin organization by a cross-talk of TM4SF5 with integrin α2 are regulated by serum treatment, Exp Cell Res, 312, pp. 2983-99, 2006). Mounted samples were visualized by a fluorescent microscope (BX51, Olympus, Japan).

The subject of a further test is TM4SF5-null cells. The test is described as follows: Immunofluorescence of focal adhesions and actin, TM4SF5-null cells. Format: cell-based. The following applies: 20 μM TA. How it is done: as §2
Test [2] concerns SNU449Cp cells expressing no TM4SF5. Put plainly: Number of floating cells, SNU449Cp. The settings on record: TA versus DMSO. It counts as cell-based.
Text: as §1

In test [3] the test system is TM4SF5-expressing SNU449T16 cells tumors. The test is described as follows: TM4SF5-mediated tumor formation in nude mice. Format: in vivo. The following applies: for tumor volumes decreased to: 30 days. How it is done:
4-5 week old female nude mice (BALB/cAnNCrjBgi-nu) were purchased from Orient. Co. Ltd. (Seongnam, Korea). The mice were housed in a specific pathogen-free room under controlled temperature and humidity. All animal procedures were performed in accordance with the procedures in Seoul National University Laboratory Animal Maintenance Manual and with IRB agreement. Mice aged 5-6 weeks were injected subcutaneously with 5×10^6 viable SNU449Cp or SNU449T16 cells. Tumor volumes were measured with a caliper and calculated using the following Mathematical Formula 1. When the tumor volume reached 200 mm^3, mice were injected intraperitoneally with 3 mg/kg or 30 mg/kg (body weight) of tiarellic acid (TA) every other day for 30 days. (Width×Length^2)/2 [Mathematical Formula 1]
Width: minimal diameter (mm)
Length: maximal diameter (mm)
To evaluate whether tiarellic acid (TA) administration might interfere with TM4SF5 mediated tumor formation in nude mice, the following experiment was performed as described in the literature (Lee S-A et al., TM4SF5-mediated transmodulation between cytosolic p27Kip1 and Rho GTPases and epithelial-mesenchymal transition cause loss of contact inhibition, Cancer Cell, 2007).

The test system of test [4] is focal adhesion molecules in cells lacking TM4SF5. Put plainly: Focal adhesion molecule activation in TM4SF5-null cell lines. It counts as cell-based. The settings on record: FIG. 12. The method, then:
(§3) Whole cell lysates from cells under diverse experimental conditions were prepared, as described in the literature (Lee, S. Y. et al., Focal adhesion and actin organization by a cross-talk of TM4SF5 with integrin α2 are regulated by serum treatment, Exp Cell Res, 312, pp. 2983-99, 2006). For example, cells were subjected to electroporation (950 μF, 250 V) with a control GFP, wild-type focal adhesion kinase (FAK), paxillin, p130Cas cDNA. One day after electroporation, cells were treated with TA (20 μM) for the indicated periods. Cells cultured normally or treated with TA at different concentrations for the indicated periods were harvested using RIPA buffer. Control or tumor tissues from nude mice were frozen immediately after surgery using liquid N2. Tissues in the liquid N2 was homogenized using a mortar and pestle, and extracted using 0.1% SDS containing RIPA buffer. Standard Western blots of lysates were performed by using antibody against phospho-Y^397, Y^407, Y^577, Y^861, Y^925 FAK (BioSource International, Inc., Camarillo, Calif.), phospho-Y^416Src, c-Src, p15^INK4B, p16^INK4A (Santa Cruz Biotech., Santa Cruz, Calif.), FAK, p130Cas, paxillin, pY^118paxillin, active caspase-3 (BD Transduct. Lab., San Jose, Calif.), α-tubulin (Sigma, St Louis, Mo.), phopsho-S^473, or T^308Akt, Akt, phospho-Erk1/2, Erk1/2 (Cell Signaling Tech., Danvers, Mass.), and TM4SF5 (homemade).

Test [5] concerns SNU449T16 cells introduced with GFP control, wild-type FAK, paxillin or p130Cas cDNA. The test is described as follows: TA-mediated effects under overexpression of focal adhesion molecules. Format: cell-based. The method, then:
as §3
To evaluate whether overexpression of focal adhesion molecules such as focal adhesion kinase (FAK), paxillin, and p130Cas would block the effects of TA treatment, the following procedure was performed as described in the literature (Lee, S. Y. et al., Focal adhesion and actin organization by a cross-talk of TM4SF5 with integrin α2 are regulated by serum treatment, Exp Cell Res, 312, pp. 2983-99, 2006).
To explore this, each cDNA was introduced into SNU449T16 cells via electroporation. After 1 day, the cells were treated with 20 μM TA for 24 hrs to obtain lysates. […] Therefore, the TA-mediated effects on TM4SF5-expressing cells could be overcome to a certain degree by overexpression of focal adhesion molecules. On the other hand, changes in Erk1/2 activation were not observed under each experimental condition, thereby understanding TA-mediated effects on signal transduction in this experimental system.

In test [6] the test system is SNU449Tp and SNU449T16 expressing TM4SF5. The test is described as follows: Analysis of cellular DNA content (sub-G1), TM4SF5-expressing cells. Format: cell-based. The settings on record: 20 μM TA, 24 hr. The text has this:
FIG. 19 is the result of analyzing cellular DNA content, after tiarellic acid (TA) treatment;

The subject of test [7] is TM4SF5-expressing SNU449Tp cells. Put plainly: Inhibitory effect on growth of TM4SF5-expressing cell. Format: cell-based. The method, then: After virus infection, pooled stable clones (control SNU449Cp and TM4SF5-expressing SNU449Tp cell clones) and single cell-driven stable clones (TM4SF5-expressing SNU449T16) were prepared by infecting SNU449 hepatocytes (Korean Cell Bank, Seoul, Korea) with retrovirus for empty pLNCX or pLNCX with TM4SF5. Parental and control cells (Cp) were maintained in RPMI-1640/10% FBS/0.25 μg/ml gentamycin (Calbiochem, San Diego, Calif.) without or with 200 μg/ml G418 (A.G. Scientific Inc., San Diego, Calif.), respectively, at 37° C. and 5% CO2. Cells endogenously expressing TM4SF5 or cells endogenously expressing no TM4SF5 (Korean Cell Bank) were maintained in either DMEM-H or RPMI-1640 media with 10% FBS (JBI Inc., Daegu, Korea).

Take `C=C(C)C1CC[C@]2(C)CC[C@]3(C(=O)O)C(CCC4[C@@]5(C)CC[C@H](O)[C@@](C)(CO)C5CC[C@]43C)C12` (some centres unmarked) [tiarellic acid (TA), 3,23-dihydroxy-20(29)-lupen-27-oic acid]: the results for the “number of floating cells” value in test [1] and in test [2] were “increased” and “did not affect”, respectively. Further, the focal adhesions entry in the test with TM4SF5-expressing cells (20 μM TA) is on record as “lost”. The “immunostaining for pY397FAK or pY118paxillin” value in the test with TM4SF5-expressing cells (FIG. 13) is listed as “disassembly of focal adhesion molecules was observed”. Moreover, the “association between integrin α5 and pY397FAK” value in the test on TM4SF5-expressing cells (FIG. 14) was “dissociation”. Besides, in the test on TM4SF5-expressing cells (FIG. 15), the “actin organization and stress fibers” value is listed as “abnormal actin organization with insignificant stress fibers”. The focal adhesion formation entry with TM4SF5-null cells is listed as “did not affect”. Also, the figures for the “tumor volumes decreased to” value in [3] (3 mg/kg body weight i.p. every other day) and in test [3] (30 mg/kg body weight i.p. every other day) were 46.0% and 22.1%, respectively. Besides, the TM4SF5-mediated tumor formation entry in test [3] (intraperitoneally every other day for 30 days, established tumors ~200 mm^3) is given as “decreased”. The “inhibitory effects on focal adhesion molecule activation” value in test [4] was “not”. Also, in [5] (SNU449T16 overexpressing focal adhesion molecules), the “TA-mediated increases in the sub-G1 population under overexpression” value was “blocked”. The “focal adhesion molecule and caspase-3 activity” value in test [5] (SNU449T16 with control plasmid (GFP), 20 μM TA) was “time-dependent inactivation of focal adhesion molecules and activation of caspase-3”. Further, the “TA-mediated effects under overexpression” value in test [5] (SNU449T16 with wild-type FAK, paxillin, or p130Cas, 20 μM TA) is listed as “certain degrees of blocking”. Further, the “changes in Erk1/2 activation” value in test [5] (each experimental condition) is on record as “not observed”. In addition, in [6], the “sub-G1 populations (cellular DNA content)” value is given as “significant sub-G1 populations”. In test [7] (FIG. 4, depending on concentration and time), the “number of TM4SF5-expressing cells” value is on record as “decreased”. In addition, the “inhibitory effect on cell growth” value in test [7] (SNU449Tp, 5 μM, 3 days) was “inhibitory effect was observed”. For the same molecule, the “cell density and cell shape” value in [7] (SNU449Tp, 20 μM, 3 days) is “reduced cell density and round shaped cells were observed”. Moreover, the “inhibitory effect on the growth of TM4SF5-expressing cell” value in [7] (TA 0, 0.1, 5, 20 μM) was “inhibitory effect”.
